Laboratory results reported in the supplement of paper PMC8671470.

Tests used:
Settings in all cases: 72 h
[1] = test system: myeloid leukemia patient primary cells Pat.8; assay: area under dose-response curve (viability, 1 nM-10 uM) (fraction (0-1)); higher = more sensitive
Method: (§1)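 AUC (0–1, higher = more sensitive) of the 5-point dose–response (1 nM–10 µM, 72 h, CellTiter-Glo) in primary AML/CML patient mononuclear cells. 0.030103 is the floor for inactive compounds.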

[2] = test system: myeloid leukemia patient primary cells Pat.12; assay: as above
Method: as §1

[3] = test system: myeloid leukemia patient primary cells Pat.13; assay: as above
Method: as §1

[4] = test system: myeloid leukemia patient primary cells Pat.10; assay: as above
Method: as §1

[5] = test system: myeloid leukemia patient primary cells Pat.9; assay: as above
Method: as §1

[6] = test system: myeloid leukemia patient primary cells Pat.15; assay: as above
Method: as §1

[7] = test system: myeloid leukemia patient primary cells Pat.5; assay: as above
Method: as §1

[8] = test system: myeloid leukemia patient primary cells Pat.1; assay: as above
Method: as §1

[9] = test system: myeloid leukemia patient primary cells Pat.6; assay: as above
Method: as §1

[10] = test system: myeloid leukemia patient primary cells Pat.14; assay: as above
Method: as §1

[11] = test system: myeloid leukemia patient primary cells Pat.7; assay: as above
Method: as §1

[12] = test system: myeloid leukemia patient primary cells Pat.4; assay: as above
Method: as §1

[13] = test system: myeloid leukemia patient primary cells Pat.2; assay: as above
Method: as §1

[14] = test system: myeloid leukemia patient primary cells Pat.3; assay: as above
Method: as §1

[15] = test system: myeloid leukemia patient primary cells Pat.11; assay: as above
Method: as §1

[16] = test system: BV-173; assay: cell viability (% survival relative to DMSO control); higher = less cytotoxic
Method: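 8x8 drug-combination matrices (0–5000 nM; rosiglitazone and lestaurtinib 0–1000 nM) were run in BV-173 cells for 72 h with CellTiter-Glo read-out. Survival is normalised to DMSO and 10 µM bortezomib and clipped at 100%.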

Fc1ccc(CNc2ncnc3ccc(F)cc23)cc1 [Spautin 1]
Settings	area under dose-response curve
[1]	0.0661
[2]	< 0.0301
[3]	0.111
[4]	0.0351
[5]	0.762
[6]	0.12
[7]	0.326
[8]	0.0783
[9]	0.0755
[10]	0.141
[11]	0.154
[12]	0.0735

O=c1[nH]c(=O)n([C@H]2C[C@H](O)[C@@H](CO)O2)cc1I [Idoxuridine]
Settings	area under dose-response curve
[1]	< 0.0301
[2]	< 0.0301
[3]	< 0.0301
[4]	< 0.0301
[5]	< 0.0301
[6]	< 0.0301
[7]	< 0.0301
[8]	< 0.0301
[9]	< 0.0301
[10]	< 0.0301
[11]	< 0.0301
[12]	< 0.0301
[13]	< 0.0301
[14]	< 0.0301
[15]	< 0.0301

CN(C)C(=O)n1nnnc1Cc1ccc(-c2ccccc2)cc1 + CCOC(=O)N1c2ccc(C(F)(F)F)cc2[C@@H](N(Cc2cc(C(F)(F)F)cc(C(F)(F)F)c2)C(=O)OC)C[C@H]1CC [Torcetrapib]
cell viability [%], [16]
Settings	drug1 concentration 5 nM	drug1 concentration 10 nM	drug1 concentration 50 nM	drug1 concentration 100 nM	drug1 concentration 500 nM	drug1 concentration 1000 nM	drug1 concentration 5000 nM
drug2 concentration 5 nM	> 100	> 100	> 100	83.6	86.7	61	-1.29
drug2 concentration 10 nM	79.6	99.9	97.9	77.9	64.3	67	-0.12
drug2 concentration 50 nM	70.5	94.4	69.5	70.6	61	53.7	1.13
drug2 concentration 100 nM	62.8	69	80.1	87.3	> 100	45.6	-0.25
drug2 concentration 500 nM	73.5	> 100	> 100	83.8	95.5	86	0.45
drug2 concentration 1000 nM	80.8	68.8	94.8	94.5	> 100	71.3	1.28
drug2 concentration 5000 nM	61.4	64.7	62	69.6	77.6	24.2	0

NS(=O)(=O)c1ccc(S(=O)(=O)Nc2cccc3c(Cl)c[nH]c23)cc1 [Indisulam]
Settings	area under dose-response curve
[1]	0.0654
[2]	< 0.0301
[3]	0.167
[4]	< 0.0301
[5]	0.227
[6]	0.0789
[7]	0.379
[8]	0.128
[11]	0.228
[12]	0.29
[13]	< 0.0301
[14]	0.137

c1ccc2c(c1)SCc1c-2[nH]c2ccccc12
Settings	area under dose-response curve
[1]	0.139
[2]	0.165
[3]	0.176
[4]	0.505
[5]	0.397
[6]	0.22
[7]	0.787
[8]	0.132
[9]	0.14
[10]	0.403
[11]	0.259
[12]	0.192
[13]	0.142
[14]	0.37
[15]	0.148
